# Patent publication US8546375B2, “(3-(4-(aminomethyl)phenoxy or phenylthio)azetidin-1-yl)(5-phenyl-1,3,4-oxadiazol-2-yl)methanone compounds” (AstraZeneca AB, priority 2010, dated 2013)
# pIC50: −log10 of the molar value. Structures can show the parent of a compound that is named as a salt.
# Target: T1, Melanin Concentrating Hormone Receptor 1 (MCHR1) (Homo sapiens, UniProt Q99705)
# T1 construct: expressed in transfected cells
# Assay: MCHR1 Receptor Activation Assay (GTPγ^35S)
# Format: biochemical
# Settings: read-out: GTPγ^35S IC50
# T1 sequence (Q99705 whole entry): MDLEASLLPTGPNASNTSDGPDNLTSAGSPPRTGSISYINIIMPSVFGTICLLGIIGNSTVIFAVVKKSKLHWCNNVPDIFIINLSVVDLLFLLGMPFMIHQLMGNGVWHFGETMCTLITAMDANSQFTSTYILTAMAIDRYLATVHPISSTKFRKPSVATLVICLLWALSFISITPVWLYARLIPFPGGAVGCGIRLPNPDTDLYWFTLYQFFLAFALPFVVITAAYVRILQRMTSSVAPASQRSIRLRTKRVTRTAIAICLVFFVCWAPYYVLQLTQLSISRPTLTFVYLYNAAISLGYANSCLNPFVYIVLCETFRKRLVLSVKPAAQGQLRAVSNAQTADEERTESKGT
row,SMILES,pIC50
1,"Cc1cc(OC2CN(C(=O)c3nnc(-c4ccccc4)o3)C2)ccc1CN(C)C [Example 21, (3-(4-((Dimethylamino)methyl)-3-methylphenoxy)azetidin-1-yl)(5-phenyl-1,3,4-oxadiazol-2-yl)methanone]",7.66
2,"Cc1ccc(-c2nnc(C(=O)N3CC(Oc4ccc(CN(C)C)c(F)c4)C3)o2)cc1 [Example 28, (3-(4-((Dimethylamino)methyl)-3-fluorophenoxy)azetidin-1-yl)(5-p-tolyl-1,3,4-oxadiazol-2-yl)methanone]",7.57
3,"CN1CCN(Cc2ccc(OC3CN(C(=O)c4nnc(-c5ccccc5)o4)C3)cc2Cl)CC1 [Example 50, (3-(3-Chloro-4-((4-methylpiperazin-1-yl)methyl)phenoxy)azetidin-1-yl)(5-phenyl-1,3,4-oxadiazol-2-yl)methanone]",7.46
4,"COc1ccc(-c2nnc(C(=O)N3CC(Oc4ccc(CN5CCC(C)(CO)CC5)c(C)c4)C3)o2)cc1 [Example 82, (3-(4-((4-(Hydroxymethyl)-4-methylpiperidin-1-yl)methyl)-3-methylphenoxy)azetidin-1-yl)(5-(4-methoxyphenyl)-1,3,4-oxadiazol-2-yl)methanone]",7.66
5,"Cc1cc(CN2CCN(C)CC2)ccc1OC1CN(C(=O)c2nnc(-c3ccccc3)o2)C1 [Example 9, (3-(2-Methyl-4-((4-methylpiperazin-1-yl)methyl)phenoxy)azetidin-1-yl)(5-phenyl-1,3,4-oxadiazol-2-yl)methanone]",7.36
6,"Cc1cc(CN2CCOCC2)ccc1OC1CN(C(=O)c2nnc(-c3ccccc3)o2)C1 [Example 14, (3-(2-Methyl-4-(morpholinomethyl)phenoxy)azetidin-1-yl)(5-phenyl-1,3,4-oxadiazol-2-yl)methanone]",7.52
7,"COc1cc(OC2CN(C(=O)c3nnc(-c4ccccc4)o3)C2)ccc1CN1CCOCC1 [Example 7, (3-(3-Methoxy-4-(morpholinomethyl)phenoxy)azetidin-1-yl)(5-phenyl-1,3,4-oxadiazol-2-yl)methanone]",7.68
8,"CN(C)Cc1ccc(OC2CN(C(=O)c3nnc(-c4ccccc4)o3)C2)cc1F [Example 26, (3-(4-((Dimethylamino)methyl)-3-fluorophenoxy)azetidin-1-yl)(5-phenyl-1,3,4-oxadiazol-2-yl)methanone]",7.52
9,"O=C(c1nnc(-c2ccccc2)o1)N1CC(Sc2ccc(CNC3CC3)cc2)C1 [Example 66, (3-(4-((Cyclopropylamino)methyl)phenylthio)azetidin-1-yl)(5-phenyl-1,3,4-oxadiazol-2-yl)methanone]",8.00
10,"CNCc1ccc(OC2CN(C(=O)c3nnc(-c4ccccc4)o3)C2)cc1C [Example 53, (3-(3-Methyl-4-((methylamino)methyl)phenoxy)azetidin-1-yl)(5-phenyl-1,3,4-oxadiazol-2-yl)methanone]",7.55
11,"Cc1cc(OC2CN(C(=O)c3nnc(-c4ccc(OC(F)F)cc4)o3)C2)ccc1CN(C)C [Example 43, (5-(4-(Difluoromethoxy)phenyl)-1,3,4-oxadiazol-2-yl)(3-(4-((dimethylamino)methyl)-3-methylphenoxy)azetidin-1-yl)methanone]",7.96

# Next, values leading:
row,pIC50,SMILES
1,7.00,"CC(=O)N1CCN(Cc2ccc(OC3CN(C(=O)c4nnc(-c5ccccc5)o4)C3)cc2)CC1 [Example 23, 1-(4-(4-(1-(5-Phenyl-1,3,4-oxadiazole-2-carbonyl)azetidin-3-yloxy)benzyl)piperazin-1-yl)ethanone]"
2,7.70,"O=C(c1nnc(-c2ccc(F)cc2)o1)N1CC(Oc2ccc(CN3CCCC3)cc2)C1 [Example 4, (5-(4-Fluorophenyl)-1,3,4-oxadiazol-2-yl)(3-(4-(pyrrolidin-1-ylmethyl)phenoxy)azetidin-1-yl)methanone]"
3,7.64,"COc1ccc(-c2nnc(C(=O)N3CC(Oc4ccc(CN5CC(C)(O)C5)cc4)C3)o2)cc1 [Example 76, (3-(4-((3-Hydroxy-3-methylazetidin-1-yl)methyl)phenoxy)azetidin-1-yl)(5-(4-methoxyphenyl)-1,3,4-oxadiazol-2-yl)methanone]"
4,7.72,"Cc1ccc(-c2nnc(C(=O)N3CC(Oc4ccc(CN5CCCC5)cc4)C3)o2)cc1 [Example 6, (3-(4-(Pyrrolidin-1-ylmethyl)phenoxy)azetidin-1-yl)(5-p-tolyl-1,3,4-oxadiazol-2-yl)methanone hydrochloride]"
5,7.77,"CN(C)Cc1ccc(OC2CN(C(=O)c3nnc(-c4ccc(OC(F)F)cc4)o3)C2)cc1 [Example 37, (5-(4-(Difluoromethoxy)phenyl)-1,3,4-oxadiazol-2-yl)(3-(4-((dimethylamino)methyl)phenoxy)azetidin-1-yl)methanone]"
6,7.74,"COc1ccc(-c2nnc(C(=O)N3CC(Oc4ccc(CN5CCCC5)c(C(F)(F)F)c4)C3)o2)cc1 [Example 46, (5-(4-Methoxyphenyl)-1,3,4-oxadiazol-2-yl)(3-(4-(pyrrolidin-1-ylmethyl)-3-(trifluoromethyl)phenoxy)azetidin-1-yl)methanone]"
7,7.60,"COc1ccc(-c2nnc(C(=O)N3CC(Oc4ccc(CN5CCC(C)(CO)CC5)cc4)C3)o2)cc1 [Example 83, (3-(4-((4-(Hydroxymethyl)-4-methylpiperidin-1-yl)methyl)phenoxy)azetidin-1-yl)(5-(4-methoxyphenyl)-1,3,4-oxadiazol-2-yl)methanone]"
8,7.68,"O=C(c1nnc(-c2ccccc2)o1)N1CC(Oc2ccc(CN3CC(C(F)F)C3)cc2)C1 [Example 68, (3-(4-((3-(Difluoromethyl)azetidin-1-yl)methyl)phenoxy)azetidin-1-yl)(5-phenyl-1,3,4-oxadiazol-2-yl)methanone]"
9,7.39,"COc1ccc(-c2nnc(C(=O)N3CC(Oc4ccc(CN5CCN(C)CC5)cc4C)C3)o2)cc1 [Example 10, (5-(4-Methoxyphenyl)-1,3,4-oxadiazol-2-yl)(3-(2-methyl-4-((4-methylpiperazin-1-yl)methyl)phenoxy)azetidin-1-yl)methanone]"
10,7.77,"COc1ccc(-c2nnc(C(=O)N3CC(Oc4ccc(CN5CCC(C)(CO)C5)cc4)C3)o2)cc1 (stereo not drawn) [Example 84, (3-(4-((3-(hydroxymethyl)-3-methylpyrrolidin-1-yl)methyl)phenoxy)azetidin-1-yl)(5-(4-methoxyphenyl)-1,3,4-oxadiazol-2-yl)methanone]"
11,7.80,"O=C(c1nnc(-c2ccccc2)o1)N1CC(Oc2ccc(CN3CCCC3)c(C(F)(F)F)c2)C1 [Example 45, (5-Phenyl-1,3,4-oxadiazol-2-yl)(3-(4-(pyrrolidin-1-ylmethyl)-3-(trifluoromethyl)phenoxy)azetidin-1-yl)methanone]"
12,7.82,"O=C(c1nnc(-c2ccc(C(F)(F)F)cc2)o1)N1CC(Oc2ccc(CN3CCCC3)cc2)C1 [Example 5, (3-(4-(Pyrrolidin-1-ylmethyl)phenoxy)azetidin-1-yl)(5-(4-(trifluoromethyl)phenyl)-1,3,4-oxadiazol-2-yl)methanone formate]"
13,7.57,"O=C(c1nnc(-c2ccccc2)o1)N1CC(Oc2ccc(CN3CCCC3)cc2)C1 [Example 3, (5-Phenyl-1,3,4-oxadiazol-2-yl)(3-(4-(pyrrolidin-1-ylmethyl)phenoxy)azetidin-1-yl)methanone]"

# Same assay, conditions: separated enantiomers of Example 84 (chiral chromatography fractions); assay not given; read-out: IC50
row,pIC50,SMILES
1,7.62,"COc1ccc(-c2nnc(C(=O)N3CC(Oc4ccc(CN5CCC(C)(CO)C5)cc4)C3)o2)cc1 (single isomer, unassigned; (+)) [Example E2, (+)(3-(4-((3-(hydroxymethyl)-3-methylpyrrolidin-1-yl)methyl)phenoxy)azetidin-1-yl)(5-(4-methoxyphenyl)-1,3,4-oxadiazol-2-yl)methanone]"

# Same assay, conditions: when tested in the above referenced assays (MCH binding assay; MCHR1 receptor activation assay); read-out: IC50 value
row,pIC50,SMILES
1,≤ 7.00,"O=C(c1nnc(-c2ccccc2)o1)N1CC(Oc2ccc(CNC3COC3)cc2)C1 [(3-(4-((oxetan-3-ylamino)methyl)phenoxy)azetidin-1-yl)(5-sphenyl-1,3,4-oxadiazol-2-yl)methanone]"

# Tested on: not given
# Assay: not given
# Settings: not given
row,melting point [°C],SMILES
1,135,"Cc1cc(OC2CN(C(=O)c3nnc(-c4ccccc4)o3)C2)ccc1CN(C)C [Example 21, (3-(4-((Dimethylamino)methyl)-3-methylphenoxy)azetidin-1-yl)(5-phenyl-1,3,4-oxadiazol-2-yl)methanone]"
